The test system of this test is resistant strains of fungi (Candida spp., Microsporium, Trich. mentagrophytes, Aspergillus niger). Nature of the test: Antifungal activity on the resistant strains. Type of test: cell-based. Particulars: resistant fungal strains.

Data on 2 molecules can be found in patent US20220395555A1, “Derivatives of antibiotics” (priority 2020, published 2022).

Consider `C[C@@H]1[C@H](O)[C@@H](C)/C=C/C=C/C=C/C=C/C=C/C=C/C=C/[C@H](O[C@@H]2O[C@H](C)[C@@H](O)[C@H](N)[C@@H]2O)C[C@@H]2O[C@](O)(C[C@@H](O)C[C@@H](O)[C@H](O)CC[C@@H](O)C[C@@H](O)CC(=O)O[C@H]1C)C[C@H](O)[C@H]2C(=O)O` [amphotericin], for which the “antifungal activity, in words” value is given as “did not exert antifungal activity”.
For `C[C@@H]1[C@H](O)[C@@H](C)/C=C/C=C/CC/C=C/C=C/C=C/C=C/C(O[C@H]2O[C@H](C)[C@@H](O)[C@H](N)[C@@H]2O)CC2O[C@](O)(CC(O)C(O)CCC(O)CC(O)CC(O)CC(=O)O[C@H]1C)CC(O)C2C(=O)O` (some centres unmarked) [nystatin], the “antifungal activity, in words” value is reported as “did not exert antifungal activity”.
